The results in this text go back to patent publication US20250313546A1, “NUCLEIC ACID BINDERS” (UNIVERSITY OF STRATHCLYDE, priority 2022, published 2025).

The MIC80 is the lowest concentration that inhibits either 80% of growth or 80% of the strains tested, depending on the study. What is called IC50 is the concentration at which inhibition is half-maximal.

Values after ≈ are worked out from the molar mass of the structure shown.

Experiment [1] relates to Escherichia coli (ATCC 25922). Briefly: Antibacterial MIC, broth microdilution (CLSI). It counts as cell-based. As to conditions: for MIC80: Escherichia coli, ATCC25922, read-out: MIC80 E. coli. A general note: In broth dilution the organism is exposed to a series of concentrations in liquid medium.
Experiment [2] concerns Enterococcus faecalis (ATCC 51299). Briefly: Antibacterial MIC, broth microdilution (CLSI). It counts as cell-based. The note with it: for MIC80: Enterococcus faecalis, ATCC51299, read-out: MIC80 E. faecalis; for E. faecalis Selectivity Indices, Group: SI, IC50 (μM)/MIC80 (μM), HEK293 cytotoxicity.
In experiment [3] the test system is PolyAU double stranded RNA. Briefly: Fluorescence intercalator displacement (FID) assay, SYBR-safe probe. The note with it: 20 μM compound, 30° C., lower % = stronger binding. On the procedure: (§1) The ability of compounds of the invention to bind to DNA and RNA was assessed using a fluorescence intercalator displacement assay. Genomic double stranded DNA (salmon) or PolyAU double stranded RNA is treated with probe molecule (Sybr-Safe) that increases its fluorescence upon binding to nucleic acids.
(§2) polyAU RNA (Polyadenylic acid—Polyuridylic acid sodium salt, double-stranded homopolymer, P1537, Merck) or genomic DNA (Deoxyribonucleic acid sodium salt from salmon testes, D1626, Merck) was dissolved in 1 mM pH 7.4 phosphate buffer (containing 0.27 mM potassium chloride, 13.7 mM sodium chloride) to a concentration of 1 mg/mL in, SybrSafe (SYBR® Safe DNA Gel Stain, ×10,000 in DMSO, S33102 Invitrogen) was used as supplied by the manufacturer in DMSO, and compounds of the invention were prepared as 10 mM stocks in DMSO. These stock solutions were diluted appropriately with each other and 1 mM phosphate buffer to give test solutions comprised of 20 μM compound of the invention, 12500-fold dilution of SybrSafe and 3.76 ng/mL RNA/DNA. Control solutions of RNA/DNA and SybrSafe, RNA/DNA, and SybrSafe at these concentrations were also prepared. Test and control solutions were heated to 30° C. and the fluorescence of each solution was measured using the SYBER filter setting of a StepOnePlus using melt analysis mode (StepOne Software v2.3). The reduction of fluorescence due to the binding of the compound of the invention to the RNA/DNA was calculated as a normalised percentage based on the fluorescence measured due to the control with SybrSafe and RNA/DNA as maximum and the control with only SybrSafe as minimum.
(§3) A reduction in normalised % is indicative of probe displacement and thus strong nucleic acid binding.

Experiment [4] concerns Genomic double stranded DNA (salmon). Described as above. As to conditions: 20 μM compound, 30° C., lower % = stronger binding. How it is done:
as §1, §2, §3

Experiment [5] has as its system Staphylococcus aureus (ATCC 43300). The experiment can be described thus: Antibacterial MIC, broth microdilution (CLSI). It counts as cell-based. As to conditions: for MIC80: Staphylococcus aureus, ATCC43300, read-out: MIC80 S. aureus; for S. aureus Selectivity Indices, Group: SI, IC50 (μM)/MIC80 (μM), HEK293 cytotoxicity.
For the next experiment, the system named is T. vaginalis. Briefly: Trichomonas resorufin assay. It counts as cell-based. As to conditions: for T. vaginalis Selectivity Indices, Group: SI, IC50 (μM)/IC50 (μM), HEK293 cytotoxicity; for IC50: Trichomonas vaginalis, read-out: IC50 T. vaginalis.

In the case of `CN(C)c1ccc(/C=C/c2ccc(C(=O)Nc3c[nH]c(C(=O)Nc4cc(C(=O)NCCN5CCOCC5)n(C)c4)c3)cn2)cc1` [IIIb2, (E)-6-(4-(dimethylamino)styryl)-N-(5-((1-methyl-5-((2-morpholinoethyl)carbamoyl)-1H-pyrrol-3-yl)carbamoyl)-1H-pyrrol-3-yl)nicotinamide], the values for the MIC80 in experiment [1], in experiment [2] and in experiment [5] were more than 100 µM, more than 100 µM and 5 to 25 µM (≈ 3.05 to 15.3 µg/mL), respectively. Further, the “% Normalised Fluorescence with polyAU RNA” value in experiment [3] came to 85%. For the same compound, the “% Normalised Fluorescence with gDNA” value in experiment [4] was 31%.

On to `CCNC(=O)c1cc(NC(=O)c2cc(NC(=O)c3ccc(/C=C/c4cnc5ccccc5c4)cc3)cn2C)cn1C` [IVa6, (E)-N-ethyl-1-methyl-4-(1-methyl-4-(4-(2-(quinolin-3-yl)vinyl)benzamido)-1H-pyrrole-2-carboxamido)-1H-pyrrole-2-carboxamide], for which the MIC80 is more than 100 µM in experiment [1], less than 5 µM in experiment [2] and less than 5 µM in experiment [5]. In the experiment with T. vaginalis (Amides), the “T. vaginalis Selectivity Indices, Group” value is “B (Group B: 0.25 < SI <= 0.5)”. The IC50 in the experiment with T. vaginalis was in the range of 1 to 5 µM. For the same compound, the “E. faecalis Selectivity Indices, Group” value in experiment [2] (Amides) was “B (Group B: 0.4 < SI <= 1.5)”.

Regarding `Cn1cc(NC(=O)c2ccc(/C=C/c3cnc4ccccc4c3)cc2)cc1C(=O)Nc1cc(C(=O)N2CCCCC2)n(C)c1` [IVb1, (E)-1-methyl-N-(1-methyl-5-(piperidine-1-carbonyl)-1H-pyrrol-3-yl)-4-(4-(2-(quinolin-3-yl)vinyl)benzamido)-1H-pyrrole-2-carboxamide], the MIC80 in experiment [1] is more than 100 µM; in experiment [2], more than 100 µM; in experiment [5], 25 to 100 µM (≈ 14.7 to 58.7 µg/mL). Also, in the experiment with T. vaginalis, the IC50 lay within 5 to 50 µM.

As for `Cn1cc(NC(=O)c2ccc(/C=C/c3cnc4ccccc4c3)cc2)cc1C(=O)Nc1cc(C(=O)N2CCSCC2)n(C)c1` [IVb2, (E)-1-methyl-N-(1-methyl-5-(thiomorpholine-4-carbonyl)-1H-pyrrol-3-yl)-4-(4-(2-(quinolin-3-yl)vinyl)benzamido)-1H-pyrrole-2-carboxamide], the MIC80 was more than 100 µM in experiment [1], more than 100 µM in experiment [2] and 25 to 100 µM (≈ 15.1 to 60.5 µg/mL) in experiment [5]. In addition, the IC50 in the experiment with T. vaginalis lay in the range of 5 to 50 µM.

`Cn1cc(NC(=O)c2ccc(/C=C/c3cnc4ccccc4c3)cc2)cc1C(=O)Nc1cc(C(=O)N2CCCCCC2)n(C)c1` [IVb3, (E)-N-(5-(azepane-1-carbonyl)-1-methyl-1H-pyrrol-3-yl)-1-methyl-4-(4-(2-(quinolin-3-yl)vinyl)benzamido)-1H-pyrrole-2-carboxamide]: the MIC80 in experiment [1] is more than 100 µM; in experiment [2] it was more than 100 µM; in experiment [5], 25 to 100 µM (≈ 15 to 60.1 µg/mL). Also, the IC50 in the experiment on T. vaginalis lay in the range of 5 to 50 µM.

Consider `[H]/N=C(\CCNC(=O)c1cc(NC(=O)c2cc(NC(=O)c3ccc(C=Cc4ccc(N(C)C)cc4)nc3)cn2C)cn1C)N1CCOCC1` [Ib11, (E)-6-(4-(dimethylamino)styryl)-N-(5-((5-((3-imino-3-morpholinopropyl)carbamoyl)-1-methyl-1H-pyrrol-3-yl)carbamoyl)-1-methyl-1H-pyrrol-3-yl)nicotinamide], for which the MIC80 in experiment [1] is more than 100 µM; in experiment [2] it was 5 to 25 µM (≈ 3.26 to 16.3 µg/mL); in experiment [5], less than 5 µM.

Consider `CCCCCCCCCCCCC[N+](C)(C)CCNC(=O)c1cc(NC(=O)c2cc(NC(=O)c3ccc(/C=C/c4cnc5ccccc5c4)cc3)cn2C)cn1C` [Ic12, (E)-N,N-dimethyl-N-(2-(1-methyl-4-(1-methyl-4-(4-(2-(quinolin-3-yl)vinyl)benzamido)-1H-pyrrole-2-carboxamido)-1H-pyrrole-2-carboxamido)ethyl)tridecan-1-aminium], for which the “% Normalised Fluorescence with polyAU RNA” value in experiment [3] stood at 38%. Besides, the “% Normalised Fluorescence with gDNA” value in experiment [4] was found to be 94%.

As to `CCCCCCCCCCCCCCCCC[N+](C)(C)CCNC(=O)c1cc(NC(=O)c2cc(NC(=O)c3ccc(/C=C/c4cnc5ccccc5c4)cc3)cn2C)cn1C` [Ic16, (E)-N,N-dimethyl-N-(2-(1-methyl-4-(1-methyl-4-(4-(2-(quinolin-3-yl)vinyl)benzamido)-1H-pyrrole-2-carboxamido)-1H-pyrrole-2-carboxamido)ethyl)heptadecan-1-aminium], in experiment [3], the “% Normalised Fluorescence with polyAU RNA” value is 64%. Moreover, the “% Normalised Fluorescence with gDNA” value in experiment [4] worked out at 98%.

Take `CCCCCCCCCCCCCCCCCC[N+](C)(C)CCNC(=O)c1cc(NC(=O)c2cc(NC(=O)c3ccc(/C=C/c4cnc5ccccc5c4)cc3)cn2C)cn1C` [Ic17, (E)-N,N-dimethyl-N-(2-(1-methyl-4-(1-methyl-4-(4-(2-(quinolin-3-yl)vinyl)benzamido)-1H-pyrrole-2-carboxamido)-1H-pyrrole-2-carboxamido)ethyl)octadecan-1-aminium]: in the experiment on T. vaginalis, the IC50 is more than 50 µM.

Regarding `COCCOCCOCC[N+](C)(C)CCNC(=O)c1cc(NC(=O)c2cc(NC(=O)c3ccc(/C=C/c4cnc5ccccc5c4)cc3)cn2C)cn1C` [Ic19, (E)-2-(2-(2-methoxyethoxy)ethoxy)-N,N-dimethyl-N-(2-(1-methyl-4-(1-methyl-4-(4-(2-(quinolin-3-yl)vinyl)benzamido)-1H-pyrrole-2-carboxamido)-1H-pyrrole-2-carboxamido)ethyl)ethan-1-aminium], the values for the MIC80 in experiment [1], in experiment [2] and in experiment [5] were more than 100 µM, 5 to 25 µM and less than 5 µM, respectively.

With `CCCCCC[N+]1(CCNC(=O)c2cc(NC(=O)c3cc(NC(=O)c4ccc(/C=C/c5cnc6ccccc6c5)cc4)cn3C)cn2C)CCOCC1` [Id1, (E)-4-hexyl-4-(2-(1-methyl-4-(1-methyl-4-(4-(2-(quinolin-3-yl)vinyl)benzamido)-1H-pyrrole-2-carboxamido)-1H-pyrrole-2-carboxamido)ethyl)morpholin-4-ium], the MIC80 in experiment [1] is more than 100 µM; in experiment [2], more than 100 µM; in experiment [5] it was less than 5 µM.

For the compound `CCCCCCC[N+]1(CCNC(=O)c2cc(NC(=O)c3cc(NC(=O)c4ccc(/C=C/c5cnc6ccccc6c5)cc4)cn3C)cn2C)CCOCC1` [Id2, (E)-4-heptyl-4-(2-(1-methyl-4-(1-methyl-4-(4-(2-(quinolin-3-yl)vinyl)benzamido)-1H-pyrrole-2-carboxamido)-1H-pyrrole-2-carboxamido)ethyl)morpholin-4-ium], the MIC80 in experiment [1] is more than 100 µM; in experiment [2] it was more than 100 µM; in experiment [5] it was less than 5 µM.

In the case of `Cn1cc(NC(=O)c2cc(NC(=O)c3ccc(/C=C/c4ccc(C(F)(F)F)cc4)cc3)cn2C)cc1C(=O)NCCC(=N)N` [Ref-6, reference compound], the “T. vaginalis Selectivity Indices, Group” value in the experiment with T. vaginalis (Alkyl Amidines and NH Pyrroles) is on record as “A (Group A: SI < 8)”. In experiment [2] (Alkyl Amidines and NH Pyrroles), the “E. faecalis Selectivity Indices, Group” value was “A (Group A: SI < 3)”. Moreover, in experiment [5] (Alkyl Amidines and NH Pyrroles), the “S. aureus Selectivity Indices, Group” value is “A (Group A: SI < 3)”.

In the case of `CN(C)CCNC(=O)c1cc(NC(=O)c2cc(NC(=O)c3ccc(/C=C/c4cnc5ccccc5c4)cc3)cn2C)cn1C` [Ref-7, (E)-N-(2-(dimethylamino)ethyl)-1-methyl-4-(1-methyl-4-(4-(2-(quinolin-3-yl)vinyl)benzamido)-1H-pyrrole-2-carboxamido)-1H-pyrrole-2-carboxamide, reference compound], the “T. vaginalis Selectivity Indices, Group” value with T. vaginalis (Alkyl Amidines and NH Pyrroles) was “A (Group A: SI < 8)”; in the experiment with T. vaginalis (Quaternary ammoniums) it was “A (Group A: SI < 0.8)”. The “E. faecalis Selectivity Indices, Group” value in experiment [2] (Alkyl Amidines and NH Pyrroles) was “A (Group A: SI < 3)”; in experiment [2] (Quaternary ammoniums), “A (Group A: SI < 0.7)”. The “S. aureus Selectivity Indices, Group” value is given as “A (Group A: SI < 3)” in experiment [5] (Alkyl Amidines and NH Pyrroles); “A (Group A: SI < 2)” in experiment [5] (Quaternary ammoniums).

Take “N-(5-((5-(((Z)-3-(ethylamino)-3-(ethylimino)propyl)carbamoyl)-1-methyl-1H-pyrrol-3-yl)carbamoyl)-1-methyl-1H-pyrrol-3-yl)-6-((E)-3-methoxystyryl)nicotinamide [Ia26]”: the “MIC80 E. coli” value in experiment [1] (MIC at 80% inhibition, ATCC 25922) is “— (— means MIC80 > 100 μM)”. The “MIC80 E. faecalis” value in experiment [2] (MIC at 80% inhibition, ATCC 51299) is “— (— means MIC80 > 100 μM)”. For the same compound, the “MIC80 S. aureus” value in experiment [5] (MIC at 80% inhibition, ATCC 43300) is “* (* means 25 μM < MIC80 <= 100 μM)”.
